Measurements as given in US6596711B1, “(Aminopropyl)methylphosphinic acids” (AstraZeneca AB, priority 1999, dated 2003).

`CP(=O)(O)CC(F)CN` (stereo not shown) gave a melting point of 78 to 84 °C.
